The text below walks through data of BindingDB's records for doi:10.7270/Q2ZC817P (The Scripps Research Institute Molecular Screening Center, 2007).

Counter-ions that a name gives are not always drawn. Where only a bound is given, the exact number is not on record here.

Sphingosine 1-phosphate receptor 1, sequence (P21453 whole entry): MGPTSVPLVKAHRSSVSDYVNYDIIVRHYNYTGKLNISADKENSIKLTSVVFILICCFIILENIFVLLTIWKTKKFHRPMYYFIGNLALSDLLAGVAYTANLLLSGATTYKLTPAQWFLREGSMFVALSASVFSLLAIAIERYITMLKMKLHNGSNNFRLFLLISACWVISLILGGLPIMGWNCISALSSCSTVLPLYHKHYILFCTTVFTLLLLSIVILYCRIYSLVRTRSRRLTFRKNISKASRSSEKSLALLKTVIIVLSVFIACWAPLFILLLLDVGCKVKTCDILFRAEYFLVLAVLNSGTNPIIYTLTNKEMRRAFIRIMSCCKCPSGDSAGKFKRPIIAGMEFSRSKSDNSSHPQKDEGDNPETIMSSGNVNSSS

One test concerns the target Sphingosine 1-phosphate receptor 1 (Homo sapiens, UniProt P21453). Kind of test: potentiators of S1P1 agonist response, dose response, cell-based, potentiator mode, 60K MLSMR set (AID 466).
Details: not given
For orientation: EC50 means the concentration needed to bring the measured effect to its halfway point. On to `CCCC(=O)N1CCN(c2ccc(NC(=O)c3cc4ccccc4o3)cc2Cl)CC1` [MLS000096729], for which the EC50 turned out to be 8.63 µM.

Take `CCc1oc2ccccc2c1C(=O)c1cc(Br)c(O)c(Br)c1`: the EC50 amounted to 5.13 µM.

On to `O=C(CCc1nc(-c2ccccc2F)no1)Nc1ccc(Oc2ccccc2)cc1` [3-[3-(2-fluorophenyl)-1,2,4-oxadiazol-5-yl]-N-(4-phenoxyphenyl)propanamide], for which the EC50 was found to be 4.77 µM.

Consider `CCc1cc(-c2n[nH]cc2-c2ccc3c(c2)OCO3)c(O)cc1O` [SMR000060132], for which the EC50 worked out at 6.57 µM.

Consider `O=C(Nc1ccc(S(=O)(=O)NCc2ccco2)cc1)c1ccc2ccccc2n1` [MLS000098663], for which the EC50 is 6.51 µM.

In the case of `Oc1ccc(-c2nnc(-c3ccc(O)cc3)nn2)cc1` [4,4'-(1,2,4,5-tetrazine-3,6-diyl)diphenol], the EC50 was above 10 µM.

On to `Clc1ccc(-n2nnnc2Sc2ncnc3sccc23)cc1` [SMR000066808], for which the EC50 is 5.29 µM.

Consider `CCOc1ccc(-c2nnc(-c3ccco3)o2)cc1OCC` [2-(3,4-Diethoxy-phenyl)-5-furan-2-yl-[1,3,4]oxadiazole], for which the EC50 turned out to be 1.04 µM.

Take `Cc1ccc(-c2csc(N3CCC(NS(=O)(=O)c4ccc5c(c4)OCCO5)CC3)n2)cc1` [N-[1-[4-(4-methylphenyl)-1,3-thiazol-2-yl]piperidin-4-yl]-2,3-dihydro-1,4-benzodioxine-6-sulfonamide]: the EC50 was 1.4 µM.

For `O=C(c1ccccc1)C(CCC(CN1CCOCC1)C(=O)c1ccccc1)CN1CCOCC1` (centres undefined) [2,5-bis(4-morpholinylmethyl)-1,6-diphenylhexane-1,6-dione;hydrochloride], the EC50 stood at 4.14 µM.

Turning to `COc1ccc(-c2nc(-c3ccccc3OC)no2)cc1OC` [5-(3,4-dimethoxyphenyl)-3-(2-methoxyphenyl)-1,2,4-oxadiazole], the EC50 turned out to be 0.139 µM.

With `CCC(NCCOc1ccc(Cl)cc1)=C1C(=O)N(C)C(=O)N(C)C1=O` [5-[1-[2-(4-chlorophenoxy)ethylamino]propylidene]-1,3-dimethyl-1,3-diazinane-2,4,6-trione], the EC50 was found to be 5.34 µM.

On to `COc1cc(CSc2nnnn2-c2ccc(C)cc2)cc(OC)c1OC` [1-(4-methylphenyl)-5-[(3,4,5-trimethoxybenzyl)thio]-1H-tetrazole], for which the EC50 is 2.87 µM.

As to `CC(C)c1ccc2oc(-c3ccc(N)cc3)nc2c1` [4-(5-propan-2-yl-1,3-benzoxazol-2-yl)aniline], the EC50 worked out at 2.14 µM.

Consider `CC1=NC(=O)NC(c2ccc(Cl)cc2)C1C(=O)OCc1ccc2c(c1)OCO2` (centres undefined) [1,3-benzodioxol-5-ylmethyl 4-(4-chlorophenyl)-6-methyl-2-oxidanylidene-3,4-dihydro-1H-pyrimidine-5-carboxylate], for which the half-maximal effective concentration (EC50) was above 0.3 µM.

On to `Cc1ccc(C(C)C)c(OCc2nc(-c3nonc3N)no2)c1` [4-[5-[(5-methyl-2-propan-2-yl-phenoxy)methyl]-1,2,4-oxadiazol-3-yl]-1,2,5-oxadiazol-3-amine], for which the EC50 was found to be 1.12 µM.

On to `O=C(c1ccc(Cl)s1)N1CCN(c2nc3ccccc3s2)CC1` [MLS000100900], for which the EC50 is above 30 µM.

Regarding `Cc1cc(C(=O)N2CCN(C(c3ccccc3)c3ccccc3)CC2)on1` [(4-benzhydrylpiperazin-1-yl)-(3-methyl-1,2-oxazol-5-yl)methanone], the EC50 is 5.65 µM.

`O=C(CCN1CCc2ccccc2CC1)c1ccc2c(c1)OCCO2` [1-(2,3-dihydro-1,4-benzodioxin-6-yl)-3-(1,2,4,5-tetrahydro-3-benzazepin-3-yl)-1-propanone;hydrochloride]: the EC50 stood at 12.4 µM.

On to `N#Cc1nc(COc2ccc(Cl)cc2Cl)oc1N1CCN(c2ccccc2)CC1` [2-[(2,4-dichlorophenoxy)methyl]-5-(4-phenyl-1-piperazinyl)-4-oxazolecarbonitrile], for which the half-maximal effective concentration (EC50) was above 10 µM.

As for `CC(Oc1ccccc1Br)C(=O)N1CCc2ccccc21` (centres undefined) [1-[2-(2-bromophenoxy)propanoyl]indoline], the EC50 was 7.23 µM.

`CCOc1ccccc1OCCCCCc1c(C)n[nH]c1C` [MLS000043342]: the EC50 is 1.27 µM.

For the compound `O=C(NCc1ccco1)C1CCN(C(=O)c2cc3sccc3n2Cc2ccc(Cl)cc2)CC1` [1-[4-(4-chlorobenzyl)thieno[3,2-b]pyrrole-5-carbonyl]-N-(2-furfuryl)isonipecotamide], the EC50 amounted to 9.88 µM.

For `O=C(Nc1ccc(O)cc1)c1cc2n(n1)C(C(F)(F)F)CC(c1ccco1)N2` (centres undefined) [5-(2-furanyl)-N-(4-hydroxyphenyl)-7-(trifluoromethyl)-1,5,6,7-tetrahydropyrazolo[1,5-a]pyrimidine-2-carboxamide], the EC50 turned out to be 3.29 µM.

`CCCc1ccc(Oc2c[nH]nc2-c2ccc(O)c(C)c2O)cc1` [SMR000024172]: the EC50 was found to be 14.9 µM.

For `CCOc1ccc(-c2nc(-c3ccccc3)no2)cc1OCC` [5-(3,4-diethoxyphenyl)-3-phenyl-1,2,4-oxadiazole], the EC50 came to 0.107 µM.

Turning to `O=C(C1CCCN1S(=O)(=O)c1cccc2cccnc12)N1CCN(c2ccccc2)CC1` (centres undefined) [(4-phenyl-1-piperazinyl)-[1-(8-quinolinylsulfonyl)-2-pyrrolidinyl]methanone], the EC50 is above 95 µM.

Regarding `Clc1ccc(OCCN2CCN(c3ncnc4sccc34)CC2)cc1` [4-[4-[2-(4-chloranylphenoxy)ethyl]piperazin-1-yl]thieno[2,3-d]pyrimidine], the EC50 amounted to 0.108 µM.

Consider `COc1cc(-c2noc(C3CCCN(S(=O)(=O)c4cccc(Cl)c4)C3)n2)cc(OC)c1OC` (centres undefined) [1-(3-Chloro-benzenesulfonyl)-3-[3-(3,4,5-trimethoxy-phenyl)-[1,2,4]oxadiazol-5-yl]-piperidine], for which the EC50 was 2.6 µM.

Turning to `O=C(Nc1nccs1)c1ccc(S(=O)(=O)NCC2CCCCC2)cc1` [4-(Cyclohexylmethyl-sulfamoyl)-N-thiazol-2-yl-benzamide], the EC50 is 7.5 µM.

Take `CC(=O)Oc1ccc(-n2c(O)c3c(c2O)C2(C)C=CC3(C)O2)cc1` [MLS000107813]: the EC50 amounted to 13.4 µM.

As to `Cc1nc2sccn2c1-c1csc(NCc2ccccc2)n1` [4-(6-methyl-5-imidazo[2,1-b]thiazolyl)-N-(phenylmethyl)-2-thiazolamine], the EC50 amounted to 3.6 µM.

In the case of `CCc1ccc(S(=O)(=O)NCCc2csc(-c3ccccc3)n2)s1` [5-ethyl-N-[2-(2-phenyl-1,3-thiazol-4-yl)ethyl]thiophene-2-sulfonamide], the EC50 stood at 8.24 µM.

`CC(C)(C)SCCNS(=O)(=O)c1ccccc1` [MLS000112230]: the EC50 was above 95 µM.

On to `CC(=O)Nc1cc(OC(C)=O)c2nonc2c1OC(C)=O` [Acetic acid 7-acetoxy-5-acetylamino-benzo[1,2,5]oxadiazol-4-yl ester], for which the EC50 was 5.71 µM.

For the compound `CCOc1ccc(C(=O)Nc2c(C(N)=O)oc3ccccc23)cc1` [3-[(4-ethoxybenzoyl)amino]-1-benzofuran-2-carboxamide], the EC50 was 3.67 µM.

With `CN(C)c1oc(-c2ccc(OCc3ccccc3)cc2)nc1C#N` [2-(4-benzoxyphenyl)-5-(dimethylamino)oxazole-4-carbonitrile], the EC50 turned out to be 3.01 µM.

Consider `CCOC(=O)c1ccc2c(c1)C(=O)N(C1CCCCC1)C2=O` [2-cyclohexyl-1,3-diketo-isoindoline-5-carboxylic acid ethyl ester], for which the EC50 was above 95 µM.

The test is the same for the next values; noted with them: inactive by the depositor's call.
In the case of `CC1Cc2cc(-c3csc(NC(=O)Cc4cccs4)n3)ccc2N1S(C)(=O)=O` (centres undefined) [MLS000027766], the EC50 came to 10.4 µM.

Consider `CCc1ccc(-c2nc(CSCC(=O)N3CCN(c4ccccn4)CC3)c(C)o2)cc1` [1-[({[2-(4-ethylphenyl)-5-methyl-1,3-oxazol-4-yl]methyl}thio)acetyl]-4-pyridin-2-ylpiperazine], for which the EC50 was 11.5 µM.

`C=CCOC(=O)c1[nH]c2c(c1C)C(=O)CC(c1cc(OC)c(OC)c(OC)c1)C2` (centres undefined) [SMR000093465]: the EC50 came to 11.1 µM.

Regarding `CCOC(=O)c1ccc(NC(=O)CCc2nc(-c3ccc(Cl)cc3)no2)cc1` [4-[3-[3-(4-chlorophenyl)-1,2,4-oxadiazol-5-yl]propanoylamino]benzoic acid ethyl ester], the EC50 worked out at 13 µM.

For `CC(C)(C)NC(=O)CSc1ncnc2c1nnn2Cc1ccccc1Cl` [MLS000034488], the EC50 was determined as 12.7 µM.

As to `COc1ccccc1-c1nc(-c2ccc(Br)cc2)no1` [3-(4-bromophenyl)-5-(2-methoxyphenyl)-1,2,4-oxadiazole], the EC50 is 10.1 µM.

On to `CCOC(=O)N1CCC(NC(=O)C2CCCN(Cc3nc(-c4cccc(Cl)c4)oc3C)C2)CC1` (centres undefined) [4-[[1-[[2-(3-chlorophenyl)-5-methyl-oxazol-4-yl]methyl]nipecotoyl]amino]piperidine-1-carboxylic acid ethyl ester], for which the EC50 came to 20.1 µM.

Turning to `CCCOC(=O)c1[nH]c2c(c1C)C(=O)CC(c1cc(OC)c(OC)c(OC)c1)C2` (centres undefined) [MLS000116504], the EC50 was 12.9 µM.

`Oc1ccc(N2CCN(c3ncnc4sc5c(c34)CCC5)CC2)cc1` [4-[4-(7,8-dihydro-6H-cyclopenta[4,5]thieno[1,2-c]pyrimidin-1-yl)-1-piperazinyl]phenol]: the EC50 was found to be 10.6 µM.

Regarding `c1ccc(CSc2nnc(-c3cccs3)o2)cc1` [2-(benzylthio)-5-(2-thienyl)-1,3,4-oxadiazole], the EC50 was determined as 20.4 µM.

On to `Clc1ccc(CSc2nnc(-c3ccncc3)o2)c(Cl)c1` [2-[(2,4-dichlorobenzyl)thio]-5-(4-pyridyl)-1,3,4-oxadiazole], for which the EC50 worked out at 38.5 µM.

As for `Cc1nc2ncnn2c(N2CCN(c3cccc(C(F)(F)F)c3)CC2)c1C` [5,6-Dimethyl-7-[4-(3-trifluoromethyl-phenyl)-piperazin-1-yl]-[1,2,4]triazolo[1,5-a]pyrimidine], the EC50 was 15.4 µM.

As for `CC(C)Cn1c(=O)c(C(=O)Nc2ccccc2S(N)(=O)=O)c(O)c2ccccc21` [1-(2-methylpropyl)-2-oxidanyl-4-oxidanylidene-N-(2-sulfamoylphenyl)quinoline-3-carboxamide], the EC50 turned out to be 14.4 µM.

Consider `Cc1ccc(OCCn2cc(C(=N)NO)c3ccccc32)cc1C` [1-[2-(3,4-dimethylphenoxy)ethyl]-N'-hydroxy-1H-indole-3-carboximidamide], for which the EC50 was found to be 11.2 µM.

On to `COc1cccc(-c2nc(-c3ccc(NC(=O)c4cccnc4)cc3)no2)c1` [MLS000047254], for which the EC50 is 22.1 µM.

With `Oc1nnc(Sc2ncnc3sccc23)n1CCc1ccccc1` [4-(2-phenylethyl)-3-(4-thieno[2,3-d]pyrimidinylthio)-1H-1,2,4-triazol-5-one], the EC50 turned out to be 15 µM.
